Reference: ChEMBL document CHEMBL1909294, “Translating clinical findings into knowledge in drug safety evaluation--drug induced liver injury prediction system (DILIps)” (PLoS Comput Biol, 2011)

Tests used:
[1] = system: Hepatotoxicity;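 on HepSE bilirubinemia: bilirubinemia hepatic side effect score drawn from the DILIps training data, a prediction system for drug-induced liver injury; call rule not given here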;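 on HepSE cholecystitis: Cholecystitis-related hepatic side effect score drawn from the DILIps (drug-induced liver injury prediction) training data set; call rule not given here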;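 on HepSE cholelithiasis: hepatic side effect score for cholelithiasis, drawn from the DILIps training data for predicting drug-induced liver injury; call rule not given here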;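 on HepSE cirrhosis: cirrhosis hepatic side effect score taken from the DILIps (drug-induced liver injury prediction) training set; call rule not given here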;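 on HepSE elevated liver function tests: hepatic side effect score for raised liver function tests, as recorded in the DILIps training set used for predicting drug-induced liver injury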; on HepSE hepatic failure: call rule not given here;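 on HepSE hepatomegaly: hepatic side effect score for hepatomegaly, taken from the training set of the DILIps drug-induced liver injury prediction system; call rule not given here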
[2] = system: Hepatotoxicity; remark: listed apart in the source;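 on HepSE bilirubinemia: bilirubinemia hepatic side effect score drawn from the DILIps training data, a prediction system for drug-induced liver injury; call rule not given here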;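 on HepSE cholecystitis: Cholecystitis-related hepatic side effect score drawn from the DILIps (drug-induced liver injury prediction) training data set; call rule not given here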;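 on HepSE cholelithiasis: hepatic side effect score for cholelithiasis, drawn from the DILIps training data for predicting drug-induced liver injury; call rule not given here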;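 on HepSE cirrhosis: cirrhosis hepatic side effect score taken from the DILIps (drug-induced liver injury prediction) training set; call rule not given here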;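 on HepSE elevated liver function tests: hepatic side effect score for raised liver function tests, as recorded in the DILIps training set used for predicting drug-induced liver injury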; on HepSE hepatic failure: call rule not given here;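 on HepSE hepatomegaly: hepatic side effect score for hepatomegaly, taken from the training set of the DILIps drug-induced liver injury prediction system; call rule not given here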
[3] = system: Hepatotoxicity; remark: listed apart in the source;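 on HepSE bilirubinemia: bilirubinemia hepatic side effect score drawn from the DILIps training data, a prediction system for drug-induced liver injury; call rule not given here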;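 on HepSE cholecystitis: Cholecystitis-related hepatic side effect score drawn from the DILIps (drug-induced liver injury prediction) training data set; call rule not given here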;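 on HepSE cholelithiasis: hepatic side effect score for cholelithiasis, drawn from the DILIps training data for predicting drug-induced liver injury; call rule not given here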;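 on HepSE cirrhosis: cirrhosis hepatic side effect score taken from the DILIps (drug-induced liver injury prediction) training set; call rule not given here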;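 on HepSE elevated liver function tests: hepatic side effect score for raised liver function tests, as recorded in the DILIps training set used for predicting drug-induced liver injury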; on HepSE hepatic failure: call rule not given here
[4] = system: Hepatotoxicity; remark: listed apart in the source;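 on HepSE bilirubinemia: bilirubinemia hepatic side effect score drawn from the DILIps training data, a prediction system for drug-induced liver injury; call rule not given here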;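 on HepSE cholecystitis: Cholecystitis-related hepatic side effect score drawn from the DILIps (drug-induced liver injury prediction) training data set; call rule not given here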;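 on HepSE cholelithiasis: hepatic side effect score for cholelithiasis, drawn from the DILIps training data for predicting drug-induced liver injury; call rule not given here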;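 on HepSE cirrhosis: cirrhosis hepatic side effect score taken from the DILIps (drug-induced liver injury prediction) training set; call rule not given here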;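 on HepSE elevated liver function tests: hepatic side effect score for raised liver function tests, as recorded in the DILIps training set used for predicting drug-induced liver injury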; on HepSE hepatic failure: call rule not given here
[5] = system: Hepatotoxicity; remark: listed apart in the source; on HepSE hepatic failure: call rule not given here
[6] = system: Hepatotoxicity; remark: listed apart in the source; on HepSE hepatic failure: call rule not given here
[7] = system: Hepatotoxicity; remark: listed apart in the source
[8] = system: Hepatotoxicity; remark: listed apart in the source
[9] = system: Hepatotoxicity; remark: listed apart in the source
[10] = system: Hepatotoxicity; remark: listed apart in the source
[11] = system: Hepatotoxicity; remark: listed apart in the source
[12] = system: Hepatotoxicity; remark: listed apart in the source
[13] = system: Hepatotoxicity; remark: listed apart in the source
[14] = system: Hepatotoxicity; remark: listed apart in the source

SMILES | HepSE_bilirubinemia [1] | HepSE_cholecystitis [2] | HepSE_cholelithiasis [3] | HepSE_cirrhosis [4] | HepSE_elevated liver function tests [5] | HepSE_hepatic failure [6] | HepSE_hepatic necrosis [7] | HepSE_hepatitis [8] | HepSE_hepatomegaly [9] | HepSE_jaundice [10] | HepSE_liver disease [11] | HepSE_liver fatty [12] | HepSE_liver function tests abnormal [13] | HepSE_Combined Scores [14] | also measured
O=S(=O)([O-])CCS.[Na+] [MESNA] | 0 | 0 | 0 | 0 | 0 | 0 | 0 | 0 | 0 | 0 | 0 | 0 | 0 | 0 | –
O=C(O)Cc1ccccc1Nc1c(Cl)cccc1Cl [DICLOFENAC] | – | – | – | – | – | – | – | – | – | – | – | – | – | – | HepSE_bilirubinemia ([1]; Liver): 0; HepSE_cholecystitis ([2]; Liver): 0; HepSE_cholelithiasis ([3]; Liver): 0; HepSE_cirrhosis ([4]; Liver): 1; HepSE_elevated liver function tests ([5]; Liver): 0; HepSE_hepatic failure ([6]; Liver): 1; HepSE_hepatic necrosis ([7]; Liver): 1; HepSE_hepatitis ([8]; Liver): 1; HepSE_hepatomegaly ([9]; Liver): 0; HepSE_jaundice ([10]; Liver): 1; HepSE_liver disease ([11]; Liver): 0; HepSE_liver fatty ([12]; Liver): 0; HepSE_liver function tests abnormal ([13]; Liver): 0; HepSE_Combined Scores ([14]; Liver): 5
O=C(c1ccccc1)c1ccc2n1CCC2C(=O)O (configuration not stated) [KETOROLAC] | 0 | 0 | 0 | 0 | 0 | 1 | 0 | 1 | 0 | 1 | 0 | 0 | 0 | 3 | –
Nc1nc(O)c2ncn(COC(CO)CO)c2n1 [GANCICLOVIR] | 0 | 0 | 1 | 0 | 0 | 1 | 0 | 1 | 0 | 1 | 0 | 0 | 0 | 4 | –
CCOC(=O)[C@H](CCc1ccccc1)N[C@@H](C)C(=O)N1Cc2cc(OC)c(OC)cc2C[C@H]1C(=O)O [MOEXIPRIL] | 0 | 0 | 0 | 0 | 0 | 0 | 0 | 1 | 0 | 0 | 0 | 0 | 0 | 1 | –
CC[C@@H](CO)NCCN[C@@H](CC)CO [ETHAMBUTOL] | 0 | 0 | 0 | 0 | 0 | 0 | 0 | 1 | 0 | 0 | 0 | 0 | 1 | 2 | –
CC(C(=O)O)c1ccc(C(=O)c2cccs2)cc1 (configuration not stated) [SUPROFEN] | 0 | 0 | 0 | 0 | 0 | 0 | 0 | 0 | 0 | 0 | 0 | 0 | 0 | 0 | –
C[C@H](/C=C/[C@H](C)C(C)(C)O)[C@H]1CC[C@H]2/C(=C/C=C3C[C@@H](O)C[C@H](O)C3)CCC[C@]12C [PARICALCITOL] | 0 | 0 | 0 | 0 | 0 | 0 | 0 | 0 | 0 | 0 | 0 | 0 | 0 | 0 | –
C[C@@H](O)C(=O)O [D-LACTIC ACID] | 0 | 0 | 0 | 0 | 0 | 0 | 0 | 0 | 0 | 0 | 0 | 0 | 0 | 0 | –
CC(=O)N[C@H]1[C@H](OCCCO)OC(C(=O)O)=C[C@@H]1O | 0 | 0 | 0 | 0 | 0 | 0 | 0 | 0 | 0 | 0 | 0 | 0 | 0 | 0 | –
CN1CCN(C2=Nc3ccccc3Oc3ccc(Cl)cc32)CC1 [LOXAPINE] | 0 | 0 | 0 | 0 | 0 | 0 | 0 | 1 | 0 | 1 | 0 | 0 | 0 | 2 | –
CNCC(O)c1ccc(OC(=O)C(C)(C)C)c(OC(=O)C(C)(C)C)c1 (configuration not stated) [DIPIVEFRIN] | 0 | 0 | 0 | 0 | 0 | 0 | 0 | 0 | 0 | 0 | 0 | 0 | 0 | 0 | –
C[n+]1ccccc1/C=N/O [PRALIDOXIME] | 0 | 0 | 0 | 0 | 0 | 0 | 0 | 0 | 0 | 0 | 0 | 0 | 0 | 0 | –
